According to ChEMBL document CHEMBL5291721, “A preclinical secondary pharmacology resource illuminates target-adverse drug reaction associations of marketed drugs” (Nat Commun, 2023):

Columns and labels:
[1] = target: T1, Alpha-1A adrenergic receptor (Homo sapiens, UniProt P35348); type: functional, cell-based
T1 sequence (P35348 whole entry): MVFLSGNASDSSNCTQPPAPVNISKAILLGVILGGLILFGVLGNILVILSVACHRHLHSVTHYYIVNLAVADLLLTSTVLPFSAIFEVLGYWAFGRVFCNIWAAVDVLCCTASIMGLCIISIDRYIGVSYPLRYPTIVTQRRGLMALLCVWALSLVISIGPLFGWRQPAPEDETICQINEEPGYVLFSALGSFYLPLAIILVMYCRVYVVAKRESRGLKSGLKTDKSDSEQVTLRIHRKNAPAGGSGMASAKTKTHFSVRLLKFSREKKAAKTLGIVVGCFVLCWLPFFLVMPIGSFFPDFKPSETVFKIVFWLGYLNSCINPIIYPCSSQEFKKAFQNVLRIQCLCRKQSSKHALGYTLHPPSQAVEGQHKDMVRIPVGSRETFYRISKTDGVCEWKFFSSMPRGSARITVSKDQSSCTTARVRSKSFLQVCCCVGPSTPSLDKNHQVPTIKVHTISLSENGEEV

[2] = target: T2, Muscarinic acetylcholine receptor M1 (Homo sapiens, UniProt P11229); type: functional, cell-based
T2 sequence (P11229 whole entry): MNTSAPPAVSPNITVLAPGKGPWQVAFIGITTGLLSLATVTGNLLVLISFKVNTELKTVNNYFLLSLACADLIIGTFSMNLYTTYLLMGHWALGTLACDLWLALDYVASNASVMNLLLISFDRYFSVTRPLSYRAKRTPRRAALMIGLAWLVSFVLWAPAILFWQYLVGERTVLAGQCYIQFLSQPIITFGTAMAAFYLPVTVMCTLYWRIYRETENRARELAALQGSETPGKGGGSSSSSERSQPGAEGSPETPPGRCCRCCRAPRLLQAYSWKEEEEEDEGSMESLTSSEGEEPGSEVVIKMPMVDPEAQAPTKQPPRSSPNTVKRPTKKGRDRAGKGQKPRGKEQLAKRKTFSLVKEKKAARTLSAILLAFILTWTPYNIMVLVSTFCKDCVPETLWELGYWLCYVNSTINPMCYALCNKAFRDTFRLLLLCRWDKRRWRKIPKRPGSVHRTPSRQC

[3] = target: T1, Alpha-1A adrenergic receptor; type: functional, cell-based; remark: listed apart in the source
[4] = target: T3, 5-hydroxytryptamine receptor 3A (Homo sapiens, UniProt P46098); type: functional
T3 sequence (P46098 whole entry): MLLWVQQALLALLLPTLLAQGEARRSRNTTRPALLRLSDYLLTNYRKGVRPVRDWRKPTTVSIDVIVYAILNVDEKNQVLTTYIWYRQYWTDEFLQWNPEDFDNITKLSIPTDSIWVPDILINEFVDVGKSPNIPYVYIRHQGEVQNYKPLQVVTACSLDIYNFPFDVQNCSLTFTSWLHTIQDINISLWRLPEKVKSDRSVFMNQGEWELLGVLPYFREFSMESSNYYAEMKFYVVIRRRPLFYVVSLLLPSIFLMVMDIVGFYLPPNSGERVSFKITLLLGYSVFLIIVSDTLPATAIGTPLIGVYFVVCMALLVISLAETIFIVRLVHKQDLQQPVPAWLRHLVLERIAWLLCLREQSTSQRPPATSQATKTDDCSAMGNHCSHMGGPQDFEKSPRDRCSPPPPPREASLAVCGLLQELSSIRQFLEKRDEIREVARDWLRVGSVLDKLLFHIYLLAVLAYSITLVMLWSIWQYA

Adenosine receptor A1 = target: T4, Adenosine receptor A1 (Homo sapiens, UniProt P30542)
T4 sequence (P30542 whole entry): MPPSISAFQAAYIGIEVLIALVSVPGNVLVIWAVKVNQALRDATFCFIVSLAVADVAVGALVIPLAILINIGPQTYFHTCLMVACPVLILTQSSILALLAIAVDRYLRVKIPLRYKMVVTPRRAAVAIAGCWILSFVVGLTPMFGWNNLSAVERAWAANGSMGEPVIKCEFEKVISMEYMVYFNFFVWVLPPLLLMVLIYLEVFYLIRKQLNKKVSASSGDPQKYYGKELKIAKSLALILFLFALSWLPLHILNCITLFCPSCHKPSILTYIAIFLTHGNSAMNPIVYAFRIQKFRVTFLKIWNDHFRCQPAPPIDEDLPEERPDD

[5] = target: T5, Gamma-aminobutyric acid receptor subunit alpha-1 (Rattus norvegicus, UniProt P62813)
T5 sequence (P62813 whole entry): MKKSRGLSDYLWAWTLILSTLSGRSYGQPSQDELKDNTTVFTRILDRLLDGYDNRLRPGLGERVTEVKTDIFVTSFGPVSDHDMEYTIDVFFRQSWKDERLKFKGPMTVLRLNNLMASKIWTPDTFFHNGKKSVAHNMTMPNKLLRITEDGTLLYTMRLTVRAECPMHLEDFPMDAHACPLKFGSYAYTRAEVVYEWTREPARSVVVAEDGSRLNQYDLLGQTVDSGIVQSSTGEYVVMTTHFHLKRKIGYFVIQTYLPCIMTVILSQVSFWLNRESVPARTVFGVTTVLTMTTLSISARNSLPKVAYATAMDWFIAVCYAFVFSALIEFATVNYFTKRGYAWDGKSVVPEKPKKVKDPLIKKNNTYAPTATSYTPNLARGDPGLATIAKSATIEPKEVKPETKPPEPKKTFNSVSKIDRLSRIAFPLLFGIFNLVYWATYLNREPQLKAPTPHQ

[6] = target: 5-hydroxytryptamine receptor 2B (Homo sapiens, UniProt P41595); type: functional, cell-based
5-hydroxytryptamine receptor 2B, sequence (P41595 whole entry): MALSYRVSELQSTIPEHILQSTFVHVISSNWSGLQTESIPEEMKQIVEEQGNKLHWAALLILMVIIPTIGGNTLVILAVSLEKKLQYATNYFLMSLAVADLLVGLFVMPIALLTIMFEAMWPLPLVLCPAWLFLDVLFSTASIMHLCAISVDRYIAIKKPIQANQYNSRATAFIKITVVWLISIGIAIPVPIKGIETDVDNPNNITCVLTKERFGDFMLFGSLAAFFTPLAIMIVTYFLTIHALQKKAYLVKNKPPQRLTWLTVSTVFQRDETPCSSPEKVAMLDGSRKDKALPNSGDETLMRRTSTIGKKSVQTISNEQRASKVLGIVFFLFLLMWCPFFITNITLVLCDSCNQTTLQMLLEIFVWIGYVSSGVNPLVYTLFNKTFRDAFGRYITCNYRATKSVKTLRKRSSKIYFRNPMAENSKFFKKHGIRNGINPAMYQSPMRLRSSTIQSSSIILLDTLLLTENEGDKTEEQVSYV

Histamine H3 receptor = Histamine H3 receptor (Homo sapiens, UniProt Q9Y5N1)
Histamine H3 receptor, sequence (Q9Y5N1 whole entry): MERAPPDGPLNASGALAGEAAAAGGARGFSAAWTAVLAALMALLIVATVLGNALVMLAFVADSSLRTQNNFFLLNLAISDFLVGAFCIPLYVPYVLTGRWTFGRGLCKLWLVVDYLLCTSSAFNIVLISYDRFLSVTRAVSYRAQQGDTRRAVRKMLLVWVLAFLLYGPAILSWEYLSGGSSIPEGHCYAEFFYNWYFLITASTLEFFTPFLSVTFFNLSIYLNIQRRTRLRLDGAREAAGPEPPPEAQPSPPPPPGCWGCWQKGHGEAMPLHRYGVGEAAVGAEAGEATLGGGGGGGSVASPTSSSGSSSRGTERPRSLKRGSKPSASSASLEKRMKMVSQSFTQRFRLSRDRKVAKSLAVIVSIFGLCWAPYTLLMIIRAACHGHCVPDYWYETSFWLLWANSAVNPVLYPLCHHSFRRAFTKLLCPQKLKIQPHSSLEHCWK

[7] = target: T5, Gamma-aminobutyric acid receptor subunit alpha-1; remark: listed apart in the source
[8] = target: T6, Prostaglandin G/H synthase 1 (Rattus norvegicus, UniProt Q63921); type: functional
T6 sequence (Q63921 whole entry): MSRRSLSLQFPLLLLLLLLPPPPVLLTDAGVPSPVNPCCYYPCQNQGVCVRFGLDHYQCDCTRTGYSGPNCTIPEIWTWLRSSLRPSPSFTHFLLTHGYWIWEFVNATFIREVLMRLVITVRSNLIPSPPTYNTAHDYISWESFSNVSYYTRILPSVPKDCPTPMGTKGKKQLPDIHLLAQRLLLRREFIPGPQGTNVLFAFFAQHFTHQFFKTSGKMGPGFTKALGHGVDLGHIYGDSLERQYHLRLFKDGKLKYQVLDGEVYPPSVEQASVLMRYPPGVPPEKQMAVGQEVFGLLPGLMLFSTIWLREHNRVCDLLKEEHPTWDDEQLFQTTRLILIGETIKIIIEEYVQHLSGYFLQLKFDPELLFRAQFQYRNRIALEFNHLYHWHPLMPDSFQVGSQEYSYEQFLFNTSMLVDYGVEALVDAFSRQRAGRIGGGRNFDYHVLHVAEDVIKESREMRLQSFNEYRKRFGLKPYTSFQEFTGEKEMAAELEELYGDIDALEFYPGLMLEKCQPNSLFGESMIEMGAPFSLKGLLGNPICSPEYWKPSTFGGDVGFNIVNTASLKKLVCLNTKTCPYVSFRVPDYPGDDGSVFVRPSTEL

[9] = target: Beta-2 adrenergic receptor (Homo sapiens, UniProt P07550)
Beta-2 adrenergic receptor, sequence (P07550 whole entry): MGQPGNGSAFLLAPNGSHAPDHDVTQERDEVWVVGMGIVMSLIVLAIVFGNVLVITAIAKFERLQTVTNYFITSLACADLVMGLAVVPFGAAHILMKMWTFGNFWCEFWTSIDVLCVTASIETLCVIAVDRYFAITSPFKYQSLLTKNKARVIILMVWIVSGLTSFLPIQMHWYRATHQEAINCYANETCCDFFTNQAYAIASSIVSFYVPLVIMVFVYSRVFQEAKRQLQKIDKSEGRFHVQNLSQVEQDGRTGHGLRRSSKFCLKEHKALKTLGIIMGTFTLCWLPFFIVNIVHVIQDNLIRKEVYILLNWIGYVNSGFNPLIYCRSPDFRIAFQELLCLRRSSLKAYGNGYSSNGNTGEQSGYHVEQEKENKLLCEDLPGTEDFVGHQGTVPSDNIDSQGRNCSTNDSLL
Note: assay procedure not described here.

Row | SMILES | AC50 [1] [µM] | AC50 [2] [µM] | AC50 [4] [µM] | AC50 (Adenosine receptor A1) [µM] | AC50 [5] [µM] | AC50 [6] [µM] | AC50 [7] [µM] | also measured
1 | Cc1onc(-c2ccccc2)c1C(=O)N[C@@H]1C(=O)N2[C@@H]1SC(C)(C)[C@@H]2C(=O)O [OXACILLIN] | > 30 | > 30 |  |  |  |  |  | 
2 | Cc1ccccc1C(=O)Nc1ccc(C(=O)N2CCCC(N(C)C)c3ccccc32)cc1 (stereo not given) [MOZAVAPTAN] | 18.8 | > 30 |  |  |  |  |  | 
3 | CCOC(=O)C1=C[C@@H](OC(CC)CC)[C@H](NC(C)=O)[C@@H](N)C1 [OSELTAMIVIR] | > 30 | > 30 |  |  |  |  |  | 
4 | C[N+](C)(C)C[C@H](O)CC(=O)[O-] [LEVOCARNITINE] | > 30 |  |  |  |  |  |  | 
5 | C[C@]1(Cn2ccnn2)[C@H](C(=O)O)N2C(=O)C[C@H]2S1(=O)=O [TAZOBACTAM] | > 30 |  |  |  |  |  |  | 
6 | COc1c2ccoc2cc2oc(=O)ccc12 [BERGAPTEN] | > 30 | > 30 |  |  |  |  |  | 
7 | OC[C@H]1O[C@@](CO)(O[C@H]2O[C@H](CO)[C@@H](O)[C@H](O)[C@H]2O)[C@@H](O)[C@@H]1O [SUCROSE] |  |  | > 30 | > 30 | > 30 | > 30 | > 30 | AC50 [3]: > 30 µM; AC50 (Histamine H3 receptor): > 30 µM; AC50 [8]: > 30 µM
8 | CC(CN1CC(=O)NC(=O)C1)N1CC(=O)NC(=O)C1 (stereo not given) [RAZOXANE] | > 30 | > 30 |  |  |  |  |  | 
9 | N[C@@H](CS)C(=O)O [CYSTEINE] | > 30 | > 30 |  |  |  |  |  | 
10 | CC(C)Cc1ccc(C(C)C(=O)O)cc1 (stereo not given) [IBUPROFEN] | > 30 |  | > 30 | > 30 | > 10 | > 10 |  | AC50 [9]: > 10 µM; AC50 [3]: > 30 µM; AC50 (Histamine H3 receptor): > 10 µM
11 | Cc1onc(-c2ccccc2)c1-c1ccc(S(N)(=O)=O)cc1 [VALDECOXIB] | > 30 |  | > 30 | 27.7 | > 10 | > 10 |  | AC50 [9]: 21.1 µM; AC50 [3]: > 30 µM; AC50 (Histamine H3 receptor): > 30 µM; AC50 [8]: > 30 µM
12 | C#C[C@]1(O)CC[C@H]2[C@@H]3CCC4=CC(=O)CC[C@@H]4[C@H]3C(=C)C[C@@]21CC [ETONOGESTREL] |  |  | > 30 |  | > 30 | > 30 | 28 | AC50 [3]: > 30 µM
13 | CN1C(C(=O)Nc2ccccn2)=C(O)c2ccccc2S1(=O)=O [PIROXICAM] |  |  | > 30 | > 10 | > 10 | > 10 | > 30 | AC50 [9]: > 10 µM
14 | CC(C)OC(=O)CCC/C=C\C[C@@H]1[C@@H](/C=C/C(F)(F)COc2ccccc2)[C@H](O)C[C@@H]1O [TAFLUPROST] | > 30 | > 30 |  |  |  |  |  | 
15 | C[C@H]1O[C@@H](n2cc(F)c(=O)[nH]c2=O)[C@H](O)[C@@H]1O [DOXIFLURIDINE] | > 30 |  |  |  |  |  |  | 
16 | O=C(O)COc1ccc(C(=O)c2cccs2)c(Cl)c1Cl | > 30 |  |  |  |  |  |  | 

Row | SMILES | AC50 [1] [µM] | AC50 [2] [µM] | AC50 [4] [µM] | AC50 (Adenosine receptor A1) [µM] | AC50 [5] [µM] | AC50 [6] [µM] | AC50 [7] [µM] | also measured
17 | C[C@@H]1C[C@H]2[C@@H]3CCC4=CC(=O)C=C[C@]4(C)[C@@]3(Cl)[C@@H](O)C[C@]2(C)[C@@]1(OC(=O)c1ccco1)C(=O)CCl [MOMETASONE FUROATE] | > 10 | > 30 |  |  |  |  |  | 
18 | CCCC(CCC)C(=O)O [VALPROIC ACID] |  |  | > 30 | > 30 | > 10 | > 10 | > 30 | AC50 [9]: > 10 µM; AC50 (Histamine H3 receptor): > 10 µM; AC50 [8]: > 30 µM
19 | CC[C@@]1(O)C(=O)OCc2c1cc1n(c2=O)Cc2cc3c([N+](=O)[O-])cccc3nc2-1 [RUBITECAN] |  |  |  |  |  |  | > 30 | 
20 | OC[C@@H](O)[C@@H](O)[C@H](O)[C@@H](O)CO [SORBITOL] |  |  |  |  |  |  | > 30 | 
21 | COc1cc2nccc(Oc3ccc(NC(=O)C4(C(=O)Nc5ccc(F)cc5)CC4)cc3)c2cc1OC [CABOZANTINIB] | 9.03 | > 30 | > 30 | > 30 |  | 5.8 |  | AC50 [3]: > 30 µM; AC50 (Histamine H3 receptor): > 30 µM; AC50 [8]: > 30 µM
22 | CN(C)CC[C@@H](c1ccc(Cl)cc1)c1ccccn1 [DEXCHLORPHENIRAMINE] |  |  | > 30 | > 30 | > 30 | > 30 |  | AC50 [9]: > 30 µM; AC50 [3]: > 30 µM; AC50 (Histamine H3 receptor): 6.3 µM; AC50 [8]: > 30 µM
23 | CN(C)[C@@H]1C(O)=C(C(N)=O)C(=O)[C@@]2(O)C(O)=C3C(=O)c4c(O)ccc(Cl)c4[C@@](C)(O)[C@H]3C[C@@H]12 [CHLORTETRACYCLINE] | > 30 |  |  |  |  |  | > 30 | 
24 | CN(CC1(C)CCCO1)S(=O)(=O)c1ccc(Cl)c(S(N)(=O)=O)c1 (stereo not given) [MEFRUSIDE] |  |  | > 30 |  | > 30 | > 30 | > 30 | AC50 [3]: > 30 µM
25 | COc1ccc(CC2c3cc(OC)c(OC)cc3CC[N+]2(C)CCC(=O)OCCCCCOC(=O)CC[N+]2(C)CCc3cc(OC)c(OC)cc3C2Cc2ccc(OC)c(OC)c2)cc1OC (stereo not given) |  |  | > 30 | > 30 | > 30 | > 30 |  | AC50 [9]: > 30 µM; AC50 [3]: 12 µM; AC50 (Histamine H3 receptor): > 30 µM; AC50 [8]: > 30 µM
26 | CCOC(=O)c1c(C)cc2c(CO)n[nH]c(=O)c2c1C [OXAGRELATE] |  |  |  |  |  |  | > 30 | 
27 | CN1CCCCC1CCN1c2ccccc2Sc2ccc([S+](C)[O-])cc21 (stereo not given) [MESORIDAZINE] | 0.0171 | > 30 |  |  |  |  |  | 
28 | COc1ccccc1Oc1c(NS(=O)(=O)c2ccc(C(C)(C)C)cc2)nc(-c2ncccn2)nc1OCCO [BOSENTAN] |  |  | > 30 | > 30 | > 10 | > 10 |  | AC50 [9]: > 10 µM; AC50 [3]: > 30 µM; AC50 (Histamine H3 receptor): > 10 µM; AC50 [8]: > 30 µM
29 | CC1=C(/C=C/C(C)=C/C=C/C(C)=C/C(=O)O)C(C)(C)CCC1 [TRETINOIN] | 20.3 |  |  |  |  |  |  | 
30 | O=C(O)CO [GLYCOLIC ACID] |  |  |  |  |  |  | > 30 | 
31 | COc1cc2nc(N3CCN(C(=O)C4CCCO4)CC3)nc(N)c2cc1OC (stereo not given) [TERAZOSIN] |  |  | > 10 | > 30 | > 10 | > 10 | > 30 | AC50 [9]: > 10 µM; AC50 (Histamine H3 receptor): > 10 µM; AC50 [8]: > 30 µM
32 | [H]/N=C(\N/C(=N/[H])Nc1ccc(Cl)cc1)NC(C)C [PROGUANIL] | > 30 | > 30 |  |  |  |  |  | 
